According to patent US6897036B2, “Fluorescent detection of peroxidase enzymes” (Lumigen, Inc., priority 2002, dated 2005):

Columns and labels:
Type in all cases: biochemical, horseradish
HRP [1] = biological target: T1, HRP (Armoracia rusticana, UniProt P00433); assay: Evaluation of substrates: fluorescence spectra of the product formed by reaction with HRP; settings: 0.05 mM substrate, HRP 13.8 fmol
T1 sequence (P00433 31-338): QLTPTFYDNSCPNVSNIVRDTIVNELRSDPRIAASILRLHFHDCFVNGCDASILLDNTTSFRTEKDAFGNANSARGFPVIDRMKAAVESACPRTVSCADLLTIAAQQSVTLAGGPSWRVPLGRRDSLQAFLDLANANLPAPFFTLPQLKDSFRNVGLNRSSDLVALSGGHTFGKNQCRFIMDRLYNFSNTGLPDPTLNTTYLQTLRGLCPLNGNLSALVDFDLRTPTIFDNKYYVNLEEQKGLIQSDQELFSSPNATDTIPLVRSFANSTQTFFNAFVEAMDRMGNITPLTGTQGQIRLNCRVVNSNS
Description: Enhanced reagent formulations containing each of Compounds 1-13 were prepared in either the Basic Formulation or the Acidic Formulation described below.
Fluorescence spectra were obtained on a Jobin Yvon/SPEX FluoroMax-3 spectrofluorometer with the excitation and emission slits set at 1.0 nm bandpass. UV Fluorimeter cuvettes (3.5 mL capacity, Perfector Scientific) were used.
Each of Compounds 1-13 was tested for production of a fluorescent product by reaction with HRP followed by spectrofluorometric analysis. A representative procedure using Compound 1 is described below. Essentially the same procedure was used for the other compounds.
Three mL of a 0.05 mM solution of ethyl N-methylacridan 9-carboxylate (Compound 1) in the acidic formulation were pipetted into a cuvette. Excitation (λem=524 nm) and emission (λex=[…]) spectra were recorded. HRP (13.8 fmol, 4.6×10^−12M) was added and mixed thoroughly. The increase in fluorescence at 524 nm was recorded over 15 min. Excitation (λem=524 nm) and emission (λex=357 nm) spectra were recorded again.

HRP [2] = biological target: T1, HRP; assay: Fluorescent detection sensitivity of HRP (microtiter plate fluorometer, FIG. 3); settings: 0.05 mM substrate in acidic formulation
Description: FIG. 3 is a graph showing the linearity of detection of HRP using fluorogenic substrates performed according to the methods of the present invention. Solutions containing 0.05 mM substrate 1 or 4, 0.1 mM 4-phenylphenol, 0.5 mM urea peroxide, 1 mM EDTA, 0.025% TWEEN 20 in 10 mM acetate buffer, pH 5 and a solution of 0.05 mM substrate 2, 0.1 mM 4-phenylphenol, 0.5 mM urea peroxide, 1 mM EDTA, 0.025% TWEEN 20 in 10 mM in 10 mM tris, pH 8 were reacted with the indicated quantities of HRP. After a reaction period of 15-20 min, fluorescence intensity was measured at the maximum. The term Intensity-Background refers to the fluorescence intensity in relative light units in the presence of HRP corrected for background fluorescence (B) in the absence of HRP. […]
Fluorescence detection limits were obtained on a Labsystems Fluoroskan Ascent microtiter plate fluorometer using an excitation bandpass filter (380 nm) and an emission bandpass filter (465 or 530 nm). […] The strips were then read on the Fluoroskan Ascent with the 380 nm-530 nm filter set.
(§1) HRP was serially diluted in type 1 water and 10 μl of diluted HRP was pipetted into each well. […] The strips were then read on the Fluoroskan Ascent with the 380 nm-465 nm filter set.
as §1

HRP [3] = biological target: T1, HRP; assay: Fluorescence signal/background measurements in the presence of HRP; settings: HRP 13.8 fmol, t=15 min vs t=0
Description: Three mL of a solution of each substrate in either the acidic or basic formulation described in Example 12 were pipetted into a cuvette. HRP (13.8 fmol, 4.6×10^−12M) was added and mixed thoroughly. The increase in fluorescence at the maximum was recorded after 15 min for each substrate. Signal-background values were calculated by comparing the fluorescence intensities at t=0 minutes and t=15 minutes.

HRP [4] = biological target: T1, HRP; assay: Sequential fluorescence spectra and kinetics of fluorescent product formation with HRP
From the text: FIG. 1 is a graph showing a series of sequential fluorescence spectra obtained from a reaction solution containing Compound 10 and HRP. The spectra correspond to the fluorescence of the acridinium product. For comparison, the fluorescence spectrum of an independently prepared sample of N-methylacridinium triflate is shown.
FIG. 2 is a graph showing the time course of the generation of fluorescent product from the reaction described in FIG. 1. The product is monitored by excitation at 357 nm and detecting fluorescence emission at 495 nm.
FIG. 4 is a graph showing the a series of sequential fluorescence spectra obtained from a reaction solution containing compound 12 and HRP. The spectra reveal the formation of the acridinium ester intermediate and N-methylacridone product.
Three mL of a 0.05 mM solution of N-methylacridan in the acidic formulation were pipetted into a cuvette. HRP (13.8 fmol, 4.6×10^−12M) was added and mixed thoroughly. Emission spectra (excitation at 357 nm) were obtained at 4.5 minute intervals over 1.8 h. The emission spectrum (excitation at 357 nm) of a 0.05 mM solution of N-methyl acridinium triflate in the acidic formulation is also shown for comparison with the emission spectra from the N-methylacridan/HRP solution.
FIG. 2 depicts the fluorescence intensity at 495 nm (with excitation at 357 nm) from the reaction solution of Example 16 as a function of time. Fluorescence intensity reached a maximum in 2 h and remained constant.
Three mL of a reagent containing 0.3 mM 2′,3′,6′-trifluorophenyl 10-methylacridan-9-carboxylate (compound 12), 0.1 mM 4-phenylphenol, 0.5 mM urea peroxide, 1 mM EDTA, and 0.025% TWEEN 20 in 0.01 M tris buffer, pH 8.0 were pipetted into a cuvette. HRP (13.8 fmol, 4.6×10^−12M) was added and mixed thoroughly. Emission spectra (excitation at 357 nm) were obtained at 4.5 minute intervals over 1.8 h.

HRP [5] = biological target: T1, HRP; assay: Fluorescent detection of HRP by acridinium ester end product formation; settings: for Fluorescence wavelength of the acridinium end product: reaction with HRP, tris pH 8.0
Description: Forty μL of a detection reagent consisting of 0.05 mM compound 14, 0.6 mM urea peroxide, 0.1 mM p-phenylphenol, 0.025% TWEEN 20, 1 mM EDTA in 0.01 M tris buffer, pH 8.0 was reacted with 1 μL of HRP (1.4×10^−16 mol) at room temperature. Acridinium ester end product formation was detected after 5 min and continued to increase over 1 h as detected by spectrophotometry and fluorescence at 500 nm. [drawing 12]

[6] = 0.05 mM substrate, tris pH 8.0, HRP 1.4×10^−16 mol, room temperature

Compound | Fluorescent properties of acridan substrates (fluorescence emission maximum after reaction with HRP) (HRP [1]; pH 5 acidic formulation) | Fluorescent properties of acridan substrates (fluorescence emission maximum after reaction with HRP) (HRP [1]; pH 8 basic formulation) | Fluorescent intensity in the presence of HRP (as S/B) (HRP [3]; pH 5 acidic formulation) | other results
CCOC(=O)C1c2ccccc2N(C)c2ccccc21 [Compound 1, ethyl N-methylacridan 9-carboxylate] | 524 nm | 524 nm | 29.5 | Fluorescent detection sensitivity of HRP (in words) (HRP [2]): excellent sensitivity; Fluorescent intensity in the presence of HRP (as S/B) (HRP [3]; pH 8 basic formulation): 11.0
COc1ccc(C2c3ccccc3N(C)c3ccccc32)cc1 [Compound 3] | 484 nm | 484 nm | 1.4 | 
Fc1ccc(N2c3ccccc3Cc3ccccc32)cc1 [Compound 4, N-(4-fluorophenyl)acridan] | 497 nm | 496 nm | 3.9 | Fluorescent detection sensitivity of HRP (in words) (HRP [2]): excellent sensitivity
c1ccc(CN2c3ccccc3Cc3ccccc32)cc1 [Compound 5, N-benzylacridan] | 494 nm | 494 nm | 5.6 | 
COc1ccc2c(c1)N(c1ccccc1)c1ccccc1C2 [Compound 6] | 512 nm | 511 nm | 3.6 | 
CC1c2ccccc2N(C)c2ccccc21 [Compound 7] | 490 nm | 488 nm | 15.8 | 
O=C(O)C1c2ccccc2N(Cc2ccccc2)c2ccccc21 [Compound 8, N-benzyl-acridan-9-carboxylic acid] |  | 493 nm |  | 
CN1c2ccccc2C(C(=O)O)c2ccccc21 [Compound 9] |  | 489 nm |  | Fluorescent intensity in the presence of HRP (as S/B) (HRP [3]; pH 8 basic formulation): 4.3
CN1c2ccccc2Cc2ccccc21 [Compound 10, N-methylacridan] |  | 490 nm |  | Time at which fluorescence intensity reached a maximum (HRP [4]; 0.05 mM in acidic formulation, HRP 13.8 fmol, emission 495 nm, excitation 357 nm): 2 h; Product of the HRP reaction identified from emission spectra (in words) (HRP [4]; 0.05 mM in acidic formulation, HRP 13.8 fmol, excitation 357 nm, compared with N-methyl acridinium triflate): enzymatic conversion of Compound 10 to the fluorescent acridinium compound
c1ccc(N2c3ccccc3C(C3c4ccccc4N(c4ccccc4)c4ccccc43)c3ccccc32)cc1 [Compound 11] | 494 nm | 494 nm | 84.0 | Fluorescent intensity in the presence of HRP (as S/B) (HRP [3]; pH 8 basic formulation): 6.1
CN1c2ccccc2C(C(=O)Oc2c(F)ccc(F)c2F)c2ccccc21 [Compound 12, 2′,3′,6′-trifluorophenyl 10-methylacridan-9-carboxylate, reference compound] |  |  |  | Progression of the HRP reaction from emission spectra (in words) (HRP [4]; 0.3 mM substrate, tris buffer pH 8.0, HRP 13.8 fmol, spectra every 4.5 min over 1.8 h): grow in of acridinium fluorescence and gradual predominance of N-methylacridone fluorescence
COc1ccc2c(c1)N(C)c1cccc(OC)c1C2C(=O)Oc1c(F)ccc(F)c1F (stereo not shown) [Compound 14] |  |  |  | Period over which end product formation continued to increase (HRP [5]; [6]): 1 h; Time after which acridinium ester end product formation was detected (HRP [5]; [6]): 5 min; Fluorescence wavelength of the acridinium end product (HRP [5]): 500 nm
COc1ccc2c(c1)N(C)c1c(C)ccc(OC)c1C2C(=O)Oc1c(F)ccc(F)c1F (stereo not shown) [Compound 15, 2,3,6-trifluoro-phenyl 1,6-dimethoxy-4,10-dimethylacridan-9-carboxylate] |  |  |  | Result of the reaction with HRP (in words) (HRP [5]; experiment similar to that with compound 14): fluorescent acridinium end product formation; Fluorescence wavelength of the acridinium end product (HRP [5]): 500 nm
